Data: patent publication US20180353539A1, “METAL COMPLEXES AS PHARMACEUTICALS FOR TREATMENT AND PREVENTION OF CANCER AND INFLAMMATORY DISEASES” (UNIVERSITY OF SOUTHERN CALIFORNIA, priority 2017, published 2018)

Experiments:
[1] = tested on: lung cancer; experiment: Case Study 14; assay type: in vivo, human
Method: A person presented with cough and chest pains that persisted over 6 months. In that time, they also lost 6 kg of weight. In the last 20 days, the patient developed hemoptysis, which lead them to hospitalization. […] They also had total opacification of the right lung. The patient was diagnosed with lung cancer and sent home. The patient was treated with 3-50 mg Zinc Iodide capsules/day for 120 days. After 5 days, their breathing capabilities and cough improved.

[2] = tested on: cholangiocarcinoma; experiment: Case Study 9; assay type: in vivo, human; design: total bilirubin: unit not given here
Excerpt: A person presented with jaundice, abdominal discomfort and lack of appetite. They could not eat or drink properly. Over the last 3 months, their weight decreased by 8 kg. […] There was also a hypodense lesion with an intraductal growth type, sized at 3.6 cm×4.1 cm, on their liver. […] They were diagnosed with cholangiocarcinoma.

[3] = tested on: prostate cancer with diffuse metastases; experiment: Case Study 7; assay type: in vivo, human
Method: A patient had prostate cancer with diffuse metastases, along with severe leg pain. They underwent hormonal therapy, until they developed severe bone pain. They took voltaren injections and solumedrol infusions to alleviate the pain. […] The patient was weak and lost 5 kg of weight in a month. They began the treatment with 125 mg of Zinc Iodide mixing with 1000 ml of sodium chloride 0.9% and 10 ml of DMSO through infusion. […] Their RBC, hemoglobin and serum calcium levels all normalized; and their PSA decrease dramatically to 40 ng/mL. Their quality of life improved greatly, and they had no symptoms.

[4] = tested on: liver cancer; experiment: Case Study 17; assay type: in vivo, human
Method: A person with chronic hepatitis C presented symptoms of abdominal pain. […] They had also been diagnosed with type 2 diabetes three years prior. […] Within 5 days their abdominal pain disappeared, and […] general health improved. […] Their cancer related markers included: AFP: 678 IU/L, GOP: 146 IU/L, GPT: 126 IU/L, and GGT: 124 IU/L. The patient's blood glucose level was 6.7 mmol/L. For the next 90 days, the patient took 50 mg of zinc iodide orally in capsule form 3 times/day. […] Their cancer related markers included: AFP: 107 IU/L, GOP: 195 IU/L, GPT: 69 IU/L, and GGT: 115 IU/L. The patient's blood glucose level was 7.4 mmol/L.

[5] = tested on: pancreatic adenocarcinoma; experiment: Case Study 16; assay type: in vivo, human
Method: A person presented symptoms of abdominal pain, nausea, and vomiting. […] They also had multiple metastases on their liver. They were diagnosed with pancreatic adenocarcinoma. Their CA 19-9 (levels of tumor-associated antigens in the blood) was 365 U/mL. The patient was treated through infusion with 200 mg of zinc Iodide mixing with 1000 mL of 0.9% sodium chloride solution and 10 mL of DMSO. The symptoms presented improved after 2 days of treatment. […] After 35 days on the treatment, an ultrasound was taken of the pancreas. The tumor had decreased to 4.3 cm×5.2 cm. Their CA 19-9 levels decreased to 168 U/mL. After 40 treatments, the patient began treatment orally; they were given 50 mg zinc iodide capsules 3 times/day. After 155 days on the oral treatment, a CT of their pancreas was taken. The tumor decreased to 2.4 cm×3.6 cm. The liver metastasis decreased by 50% also.

[6] = tested on: stage IV breast cancer metastasized to lungs and brain; experiment: Case Study 3; assay type: in vivo, human
Method: A patient was diagnosed with stage IV breast cancer and invasive ductal carcinoma metastasized to multiple organs (lungs and brain). […] They then took 3 dosages of 50 mg of zinc iodide per day orally. A chest ray was taken 61 days after the start of treatment, as shown the lung metastases decreased by more than 60%.

[7] = Case Study 15; assay type: in vivo, human
Method: Due to this, they were hospitalized 4-5 times/year. For 3 years, they used a corticosteroid inhaler, bronchodilator, antibiotics and COPD medication to no avail. They were also taking hypertension medication as a result of the COPD treatment. Their blood pressure was 160/96 and Forced Expiratory Volume (FEV1) at 58%. The patient was treated with 3-50 mg Zn Iodide capsules/day. […] […] (FEV1) was 67% and their blood pressure decreased to 130/90. […] Even though they were not taking COPD medication, there were no signs of infections either.

[8] = tested on: esophageal cancer with multiple lymphatic metastases; experiment: Case Study 10; assay type: in vivo, human
Method: A person was diagnosed with esophageal cancer with multiple lymphatic metastases. Their blood chemistry profile was normal, but their CEA levels were 6.7 ng/mL. The patient presented symptoms of extreme fatigue, difficult swallowing, chest pains, fever and weight loss. An endoscopy reveled a 4.2 cm×3.7 cm lesion on their esophagus. The tumor had poorly differentiated adenocarcinoma. […] The patient underwent treatments of 200 mg of zinc iodide mixing with 1000 mL of 0.9% sodium chloride solution and in 10 mL of DMSO, 6 times/week for 4 weeks. […] They also stopped steroid treatment. […] After 24 days of the infusion treatment, they began taking 50 mg Zinc Iodide capsules, 3 times/day for 90 days.

[9] = tested on: adenocarcinoma of the pancreatic head; experiment: Case Study 6; assay type: in vivo, human; design: total bilirubin: unit not given here
Method: A person had symptoms of weight loss and abdominal pain over a 2-month period. […] At the head, there was a 38-mm×42 mm mass detected. In addition, their intrahepatic billiard tree was dilated. The patient was given 125 mg of Zinc Iodide mixing with 1000 ml of sodium chloride 0.9% and 10 ml of DMSO through infusion daily for 20 days. […] They gained 4 kg of body weight. […] The patient is symptom free.

[10] = MTT assays; salicylic acid alone
[11] = 105 days after the beginning of treatment
[12] = after further 90 days of oral treatment
[13] = 61 days after the start of treatment

[I][Zn][I] [Zinc Iodide, zinc iodide]
breathing capabilities and cough ([1]; after 5 days): improved | clearance of opacification (CT) ([1]; after 121 days): 80% | blood in sputum ([1]; by 12 days): no longer had blood in their sputum | GGT levels ([2]; 105 days): 784 U/L | GOT levels ([2]; 105 days): 67 U/L | GPT levels ([2]; 105 days): 54 U/L | total bilirubin ([2]; 105 days): 28 | symptoms [2, 11]: no longer experienced symptoms | weight gained [2, 11]: 4 kg | GPT ([2]; after 10 days, before treatment 127): 97 U/L | total bilirubin ([2]; after 10 days, before treatment 139): 75 | GOT ([2]; after 10 days, before treatment 163): 121 U/L | GGT ([2]; after 10 days, before treatment 1410): 1267 U/L | GGT ([2]; at 21 days): 978 U/L | GOT ([2]; at 21 days): 85 U/L | GPT ([2]; at 21 days): 193 U/L | jaundice ([2]; at 21 days): improved | total bilirubin ([2]; at 21 days): 56 | digestive health ([2]; within 5 days): improved significantly | RBC, hemoglobin and serum calcium levels ([3]; after oral treatment): normalized | symptoms ([3]; after oral treatment): no symptoms | ultrasound and x-ray scans ([3]; after oral treatment): no abnormalities | PSA ([3]; after oral treatment, before treatment 260): 40 ng/mL | pain medication ([3]; by day 20): stopped all pain medication | RBC count ([3]; day 20, before treatment 3.2): 4.2 million cells/uL | serum calcium levels ([3]; day 20, before treatment 3.5): 2.5 mmol/L | hemoglobin ([3]; day 20, before treatment 9): 10.7 g/dL | pain improvement ([3]; within 7 days): 70% | GOT ([4]; after 10 days, GOT before treatment 326): 224 IU/L | blood glucose level ([4]; after 10 days, before treatment 8.5): 7.6 mmol/L | GGT ([4]; after 10 days, before treatment 251): 93 IU/L | GPT ([4]; after 10 days, before treatment 293): 187 IU/L | AFP ([4]; after 10 days, before treatment 1450): 1209 IU/L | AFP ([4]; after 21 days): 678 IU/L | GGT ([4]; after 21 days): 124 IU/L | GOT ([4]; after 21 days): 146 IU/L | GPT ([4]; after 21 days): 126 IU/L | blood glucose level ([4]; after 21 days): 6.7 mmol/L | AFP [4, 12]: 107 IU/L | GGT [4, 12]: 115 IU/L | GOT [4, 12]: 195 IU/L | GPT [4, 12]: 69 IU/L | blood glucose level [4, 12]: 7.4 mmol/L | abdominal pain ([4]; within 5 days): disappeared | symptoms ([5]; after 2 days of treatment): improved | CA 19-9 levels ([5]; after 35 days, before treatment 365): 168 U/mL | decrease of liver metastasis ([5]; after 155 days on the oral treatment): 50% | symptoms ([5]; by the 5th day): almost symptom-free | decrease of lung metastases [6, 13]: more than 60% | reduction of brain metastases (MRI) [6, 13]: 50% | symptoms of coughing, headache and nausea ([6]; over 12 days of infusion): gradually improved | Forced Expiratory Volume (FEV1) ([7]; 92 days after first treatment): 75% | blood pressure ([7]; 92 days after first treatment): 125/90 | shortness of breath ([7]; 92 days after first treatment): no longer had shortness of breath | need for fast acting bronchodilator inhalers ([7]; after 3 days): no longer needed fast acting bronchodilator inhalers | COPD related symptoms ([7]; at 30 days): remarkable improvement | Forced Expiratory Volume (FEV1) ([7]; at 30 days, before treatment 58%): 67% | blood pressure ([7]; at 30 days, before treatment 160/96): 130/90 | COPD related episodes ([7]; in the following 2 months): did not have any COPD related episodes | need for corticosteroid inhalers ([7]; within 10 days): no longer needed corticosteroid inhalers | lymph nodes ([8]; 105th day): clear of metastases | fever and pain ([8]; after 3 days): no symptoms of fever or pain | general health ([8]; after 3 days): improved | eating and drinking ([8]; within 3 weeks): could eat and drink normally | CA 19-9 level ([9]; 63rd day): 46 U/mL | liver metastases ([9]; 63rd day): no indications of liver metastases | symptoms ([9]; after treatment): symptom free | total bilirubin ([9]; at 10 days, before treatment 78): 56 | AST ([9]; at 10 days, before treatment 113): 73 U/L | GGT ([9]; at 10 days, before treatment 149): 149 U/L | ALT ([9]; at 10 days, before treatment 187): 73 U/L | CA 19-9 ([9]; at 10 days, before treatment 385): 184 U/L | body weight gained ([9]; during oral treatment): 4 kg | pain ([9]; within 7 days): completely disappeared

O=C(O)c1ccccc1O [salicylic acid]
cellular activity [10]: no effect on cellular activity
